According to PMC9323955, “Synthesis and Evaluation of Small Molecule Drug Conjugates Harnessing Thioester-Linked Maytansinoids” (Pharmaceutics, 2022):

What was measured:
[1] = PS SPR binding assay (Biacore T200, L1 chip); settings: DOPC/DOPS (3:1, v/v) liposomes on L1 chip, 25 °C
Procedure: Phospholipids, 1,2-dioleoyl-sn-glycero-3-phosphocholine (DOPC) and 1,2-dioleoyl-sn-glycero-3-[phosphate-L-serine] (DOPS) were obtained as chloroform solutions from Avanti Polar Lipids (Alabaster, AL, USA). These stock solutions were mixed in the specified proportions. A 0.4 mL aliquot of the lipid solution at a 10 mg/mL concentration was added to a round bottom flask and evaporated under a stream of N2 to provide a thin lipid film. The lipid films were rehydrated in PBS buffer for at least 1 h at room temperature. The resulting suspension was extruded through a 100 nm polycarbonate filter using an Avanti MiniExtruder according to the manufacturer’s instructions. Zeta potential (ZP) and liposome size distribution were recorded by dynamic light scattering (DLS) and microelectrophoresis using a Zetasizer Nano ZS instrument. The binding kinetics between conjugates and liposomes were recorded at 25 °C using a Biacore T200 biosensor equipped with an L1 sensor chip (GE Healthcare, Chicago, IL, USA). The new sensor chip was pretreated with running buffer (5% DMSO in phosphate buffered saline (PBS) at a pH of 7.4) and two consecutive 30 s pulses of 2:3 v/v 50 mM HCl/isopropanol at a flow rate of 30 μL/min. New liposome capture plates were prepared for each binding cycle. In PBS buffer, liposomes are diluted to 0.5–1 mM and captured to saturation in isolated flow cells at 2–5 μL/min (30–150 s). […]

[2] = tested on: sorafenib-resistant hepatocellular carcinoma; assay: Oncogene-induced, sorafenib-resistant HCC mouse model; assay type: in vivo
Procedure: Cancer cells suspended in RPMI 1640 medium (11835-030, Thermo Fisher Scientific, Waltham, MA, USA) were mixed with Matrigel™ (356237, BD Biosciences, Franklin Lakes, NJ, USA) in a 1:1 ratio. Human triple-negative breast cancer HCC1806 (1 × 10^6 cells) cells were inoculated subcutaneously into the left flank of 6-week-old female nude mice (BioLASCO Taiwan, Taipei, Taiwan) using a 1 mL syringe with a 24G needle (AN-2425R, Terumo Medical Corp., Tokyo, Japan). Tumor dimensions were measured twice weekly using electronic calipers (FOW54-200-777, PRO-MAX), and the volume of tumor grown subcutaneously (mm^3) was calculated by the formula Volume = (length × width^2)/2. A combination of 10% DMA/20% Cremophor EL/70% 5% dextrose injection (D5W) was formulated to treat HCC1806 xenograft tumors. Mice with HCC1806 tumors were grouped and administered the indicated dosing regimen of 1 mg/kg for the conjugate and 0.3 mg/kg for the cytotoxic payloads DM1 and DM4 twice-weekly (day 1 and day 4) for 2 weeks when the mean tumor volume was approximately 200–250 mm^3 or 850–900 mm^3 (large tumors). The conjugate dose of 2 mg/kg was administered weekly for the large tumor study. The body weight and tumor volume of mice were measured twice weekly. In addition, a previously reported oncogene-induced, sorafenib-resistant HCC mouse model was used in the current study to examine the antitumor activities of synthesized compounds. Briefly, plasmids including transposase (pCMV(CAT)T7-SB100), human Akt1, and luciferase (pKT2/CLP-AKT-2A-OVA-HBc-HBs-LUC) and the N-Ras V12 mutant (pT/Caggs-NRASV12) were hydrodynamically injected (HDI) and the liver was monitored for the appearance of HCC. HCC mice with a total flux of more than 1 × 10^9 photons/s from IVIS imaging were used as treatment conjugates. The indicated conjugate was administered intravenously at 1 mg/kg 3 times per week over 2 weeks. IVIS imaging was repeatedly performed to follow tumor progression, and tumor tissue from treated HCC mice was collected for histological examination and RNA extraction after administration.
Paraffin-embedded liver/tumor tissue sections were de-paraffined, re-hydrated, and then subjected to heat-induced antigen retrieval, followed by incubation with primary Abs. The primary antibodies used to detect Ki-67 and CD8α were SP6 (Abcam, Cambridge, UK) and D4W2Z (Cell Signaling Technology, Danvers, MA, USA), respectively. ImmPRESS anti-rat Ig, ImmPRESS anti-rabbit Ig, polymer detection kit, DAB peroxidase substrate kit (Vector laboratories, Burlingame, CA, USA), and liquid permanent red substrate (Dako, Glostrup, Denmark) and Hematoxylin Gill II (Leica, Wetzlar, Germany) were used for detection and visualization. Images were taken by NHRI’s Pathology Core Laboratory using an automated digital slide scanner Pannoramic MIDI with a Plan-Apochromat 20×/0.8 objective (3D HISTECH, Budapest, Hungary).
Total RNA was extracted from conjugate-treated or vehicle-treated HCC mouse tumor tissue using the RNA-easy kit (QIAGEN, Hilden, Germany). The concentration (absorbance at 260 nm) and purity (A260/280 and A260/230 ratios) of the extracted RNA was measured spectrophotometrically; RNA integrity was further determined using the 2100 Bioanalyzer System (Agilent RNA was further determined for RNA integrity using a 2100 Bioanalyzer System (Agilent Technologies, Santa Clara, CA, USA). RNA was hybridized to the barcode probe provided in the nCounter Mouse Pan-Cancer Immunoassay Kit (NanoString Technologies, Seattle, WA, USA) and then used to measure mRNA expression of 770 genes associated with the immune response. Nanostring nSolver 4.0 and nCounter Advanced Analysis 2.0 software (NanoString Technologies) was used for data processing, immune cell analysis, and pathway scoring according to the developer’s instructions.

[3] = Plasma stability, 24 h incubation with plasma (HPLC); assay type: in vitro ADME
Procedure: Zn8_DM1: 0H VS. 24H in plasma.
Zn10_DM4: 0H VS. 24H in plasma.
Supporting Figure S1. Incubation of Linker-drug 3 and 4, conjugates Zn8_DM1 and
Zn10_DM4, DM1 and DM4 with plasma for 24 hrs. HPLC condition is listed below. […]

[4] = Nanostring mRNA analysis vs vehicle
[5] = Nanostring pathway scoring vs vehicle

COc1cc2cc(c1Cl)N(C)C(=O)CC(OC(=O)C(C)N(C)C(=O)CCSC(=O)c1ccc(CN(CCOCCOCCNC(=O)c3ccc(CN(CCCCOc4cc(CN(Cc5ccccn5)Cc5ccccn5)cc(CN(Cc5ccccn5)Cc5ccccn5)c4)C(=O)C4(c5ccc(Cl)cc5)CCCCC4)cc3)C(=O)C3(c4ccc(Cl)cc4)CCCCC3)cc1)C1(C)OC1C(C)C1CC(O)(NC(=O)O1)C(OC)C=CC=C(C)C2.O=[N+]([O-])[O-].O=[N+]([O-])[O-].O=[N+]([O-])[O-].O=[N+]([O-])[O-].[Zn+2].[Zn+2] (stereo not drawn) [Zn8_DM1]
association with PS-coated liposomes (SPR) [1]: still allowed recognition | anti-HCC tumor growth (flux of luciferase activity) ([2]; 1 mg/kg i.v. 3 times a week for 2 weeks): potent anti-HCC tumor growth | CD8+ T-cell infiltration in tumors ([2]; CD8α immunohistochemistry): significant increase | CXCL9 gene expression in tumor tissue [2, 4]: significant upregulation | PD-L1 gene expression in tumor tissue [2, 4]: elevated PD-L1 gene expression | STAT1 gene expression in tumor tissue [2, 4]: elevated | NK cell function score in TME [2, 5]: significant improvement | T-cell function score in TME [2, 5]: significant improvement | interferon score in TME [2, 5]: significant improvement | Ki-67 staining of tumor samples ([2]; immunohistochemistry, treated tumor): marked reduction in Ki-67 staining | liver tumor burden vs vehicle ([2]; livers harvested a week post last dose): less tumor burden | cleavage of the maytansinoid after incubation with plasma [3]: No cleavage
